System: 648629-189-R-J1-PDC spheroids with HUVEC/MSC, viability
Test: Anticancer human tumor 648629-189-R-J1-PDC patient-derived bladder carcinoma cell line growth inhibition [PI3K]
Conditions: for viability, T/C: stronger effect = lower value
Summary of the method: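 Combination activity was assessed by viability in multicellular tumor spheroids carrying HUVEC and MSC components. Agents were tested with PI3K inhibitors from a Cmax-based top dose (or 10 microM) downward in half-log increments.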

[1] = curve of first compound, second compound 0.00316 µM
[2] = curve of first compound, second compound 0.01 µM
[3] = curve of first compound, second compound 0.0316 µM
[4] = curve of first compound, second compound 0.1 µM
[5] = curve of first compound, second compound 0.316 µM
[6] = curve of first compound, second compound 1 µM
[7] = second compound 0.00316 µM, first compound 0.0316 µM
[8] = second compound 0.00316 µM, first compound 0.1 µM
[9] = second compound 0.00316 µM, first compound 0.316 µM
[10] = second compound 0.00316 µM, first compound 1 µM
[11] = second compound 0.00316 µM, first compound 3.16 µM
[12] = second compound 0.00316 µM, first compound 10 µM
[13] = second compound 0.01 µM, first compound 0.0316 µM
[14] = second compound 0.01 µM, first compound 0.1 µM
[15] = second compound 0.01 µM, first compound 0.316 µM
[16] = second compound 0.01 µM, first compound 1 µM
[17] = second compound 0.01 µM, first compound 3.16 µM
[18] = second compound 0.01 µM, first compound 10 µM
[19] = second compound 0.0316 µM, first compound 0.0316 µM
[20] = second compound 0.0316 µM, first compound 0.1 µM
[21] = second compound 0.0316 µM, first compound 0.316 µM
[22] = second compound 0.0316 µM, first compound 1 µM
[23] = second compound 0.0316 µM, first compound 3.16 µM
[24] = second compound 0.0316 µM, first compound 10 µM
[25] = second compound 0.1 µM, first compound 0.0316 µM
[26] = second compound 0.1 µM, first compound 0.1 µM
[27] = second compound 0.1 µM, first compound 0.316 µM
[28] = second compound 0.1 µM, first compound 1 µM
[29] = second compound 0.1 µM, first compound 3.16 µM
[30] = second compound 0.1 µM, first compound 10 µM
[31] = second compound 0.316 µM, first compound 0.0316 µM
[32] = second compound 0.316 µM, first compound 0.1 µM
[33] = second compound 0.316 µM, first compound 0.316 µM
[34] = second compound 0.316 µM, first compound 1 µM
[35] = second compound 0.316 µM, first compound 3.16 µM
[36] = second compound 0.316 µM, first compound 10 µM
[37] = second compound 1 µM, first compound 0.0316 µM
[38] = second compound 1 µM, first compound 0.1 µM
[39] = second compound 1 µM, first compound 0.316 µM
[40] = second compound 1 µM, first compound 1 µM
[41] = second compound 1 µM, first compound 3.16 µM
[42] = second compound 1 µM, first compound 10 µM
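Further: spheroids exposed to agents for seven days before reading.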
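Wherever viability, T/C is given: percent of vehicle control luminescence where 100% = DMSO treated spheroids.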

Cn1ncc(Cl)c1-c1cc(C(=O)NC(CN)Cc2cccc(F)c2)sc1Cl (stereo not given) + COc1c(OCCCN2CCOCC2)ccc2c3n(c(=NC(=O)c4cnc(N)nc4)nc12)CCN3
IC50 [1]: 620 nM | IC50 [2]: 639 nM | IC50 [3]: 419 nM | IC50 [4]: 110 nM | IC50 [5]: < 31.6 nM | IC50 [6]: < 31.6 nM | viability, T/C [7]: 110% | viability, T/C [8]: 102% | viability, T/C [9]: 59.3% | viability, T/C [10]: 40.3% | viability, T/C [11]: 23.1% | viability, T/C [12]: 7.29% | viability, T/C [13]: 97.9% | viability, T/C [14]: 84% | viability, T/C [15]: 70.5% | viability, T/C [16]: 35.2% | viability, T/C [17]: 22.1% | viability, T/C [18]: 6.56% | viability, T/C [19]: 84.6% | viability, T/C [20]: 78.2% | viability, T/C [21]: 53.5% | viability, T/C [22]: 32.2% | viability, T/C [23]: 16.9% | viability, T/C [24]: 4.04% | viability, T/C [25]: 67.5% | viability, T/C [26]: 52.1% | viability, T/C [27]: 34% | viability, T/C [28]: 21.8% | viability, T/C [29]: 10.3% | viability, T/C [30]: 3.19% | viability, T/C [31]: 21.9% | viability, T/C [32]: 16.6% | viability, T/C [33]: 11.8% | viability, T/C [34]: 7.56% | viability, T/C [35]: 4.03% | viability, T/C [36]: 1.46% | viability, T/C [37]: 4.06% | viability, T/C [38]: 2.7% | viability, T/C [39]: 2.87% | viability, T/C [40]: 2.72% | viability, T/C [41]: 2.27% | viability, T/C [42]: 0.3%

CC(C)NCC(C(=O)N1CCN(c2ncnc3c2C(C)CC3O)CC1)c1ccc(Cl)cc1 (stereo not given) + COc1c(OCCCN2CCOCC2)ccc2c3n(c(=NC(=O)c4cnc(N)nc4)nc12)CCN3
IC50 [1]: 901 nM | IC50 [2]: 1030 nM | IC50 [3]: 698 nM | IC50 [4]: 144 nM | IC50 [5]: < 31.6 nM | IC50 [6]: < 31.6 nM | viability, T/C [7]: 90.2% | viability, T/C [8]: 91.7% | viability, T/C [9]: 79% | viability, T/C [10]: 45.4% | viability, T/C [11]: 26.1% | viability, T/C [12]: 14.3% | viability, T/C [13]: 102% | viability, T/C [14]: 73.5% | viability, T/C [15]: 75.1% | viability, T/C [16]: 54% | viability, T/C [17]: 26.2% | viability, T/C [18]: 13.3% | viability, T/C [19]: 77.7% | viability, T/C [20]: 77.6% | viability, T/C [21]: 67.1% | viability, T/C [22]: 40.5% | viability, T/C [23]: 24.6% | viability, T/C [24]: 11.6% | viability, T/C [25]: 60.1% | viability, T/C [26]: 51.3% | viability, T/C [27]: 45% | viability, T/C [28]: 27% | viability, T/C [29]: 16.9% | viability, T/C [30]: 8.23% | viability, T/C [31]: 19.3% | viability, T/C [32]: 18.4% | viability, T/C [33]: 14.6% | viability, T/C [34]: 12% | viability, T/C [35]: 7.28% | viability, T/C [36]: 2.74% | viability, T/C [37]: 2.91% | viability, T/C [38]: 2.63% | viability, T/C [39]: 3.85% | viability, T/C [40]: 3% | viability, T/C [41]: 2.11% | viability, T/C [42]: 0.84%

CC(Cn1ccc(-c2ccc(C#N)c(Cl)c2)n1)NC(=O)c1cc(C(C)O)[nH]n1 (stereo not given)
viability, T/C (compound 0.0316 µM): 108% [middle of 4 runs] | viability, T/C (compound 0.1 µM): 94.8% [middle of 4 runs] | viability, T/C (compound 0.316 µM): 105% [middle of 4 runs] | viability, T/C (compound 1 µM): 104% [middle of 4 runs] | viability, T/C (compound 3.16 µM): 88.8% [middle of 4 runs] | viability, T/C (compound 10 µM): 81.1% [middle of 4 runs] | IC50 (curve of compound): > 10000 nM

Cn1cnc2c(F)c(Nc3ccc(Br)cc3Cl)c(C(=O)NOCCO)cc21 + COc1c(OCCCN2CCOCC2)ccc2c3n(c(=NC(=O)c4cnc(N)nc4)nc12)CCN3
IC50 [1]: > 3000 nM | IC50 [2]: > 3000 nM | IC50 [3]: > 3000 nM | IC50 [4]: > 3000 nM | IC50 [5]: < 9.49 nM | IC50 [6]: < 9.49 nM | viability, T/C (second compound 0.00316 µM, first compound 0.00949 µM): 121% | viability, T/C (second compound 0.00316 µM, first compound 0.03 µM): 82.1% | viability, T/C (second compound 0.00316 µM, first compound 0.0949 µM): 101% | viability, T/C (second compound 0.00316 µM, first compound 0.3 µM): 83.6% | viability, T/C (second compound 0.00316 µM, first compound 0.949 µM): 96.6% | viability, T/C (second compound 0.00316 µM, first compound 3 µM): 92.3% | viability, T/C (second compound 0.01 µM, first compound 0.00949 µM): 103% | viability, T/C (second compound 0.01 µM, first compound 0.03 µM): 90.2% | viability, T/C (second compound 0.01 µM, first compound 0.0949 µM): 99.2% | viability, T/C (second compound 0.01 µM, first compound 0.3 µM): 89.3% | viability, T/C (second compound 0.01 µM, first compound 0.949 µM): 90.5% | viability, T/C (second compound 0.01 µM, first compound 3 µM): 92.7% | viability, T/C (second compound 0.0316 µM, first compound 0.00949 µM): 90% | viability, T/C (second compound 0.0316 µM, first compound 0.03 µM): 93.8% | viability, T/C (second compound 0.0316 µM, first compound 0.0949 µM): 102% | viability, T/C (second compound 0.0316 µM, first compound 0.3 µM): 87% | viability, T/C (second compound 0.0316 µM, first compound 0.949 µM): 80.8% | viability, T/C (second compound 0.0316 µM, first compound 3 µM): 78.6% | viability, T/C (second compound 0.1 µM, first compound 0.00949 µM): 62.4% | viability, T/C (second compound 0.1 µM, first compound 0.03 µM): 59.3% | viability, T/C (second compound 0.1 µM, first compound 0.0949 µM): 59% | viability, T/C (second compound 0.1 µM, first compound 0.3 µM): 73.5% | viability, T/C (second compound 0.1 µM, first compound 0.949 µM): 64.4% | viability, T/C (second compound 0.1 µM, first compound 3 µM): 59.4% | viability, T/C (second compound 0.316 µM, first compound 0.00949 µM): 20.6% | viability, T/C (second compound 0.316 µM, first compound 0.03 µM): 25.5% | viability, T/C (second compound 0.316 µM, first compound 0.0949 µM): 24.7% | viability, T/C (second compound 0.316 µM, first compound 0.3 µM): 28% | viability, T/C (second compound 0.316 µM, first compound 0.949 µM): 33.7% | viability, T/C (second compound 0.316 µM, first compound 3 µM): 32.3% | viability, T/C (second compound 1 µM, first compound 0.00949 µM): 3.08% | viability, T/C (second compound 1 µM, first compound 0.03 µM): 3.98% | viability, T/C (second compound 1 µM, first compound 0.0949 µM): 2.82% | viability, T/C (second compound 1 µM, first compound 0.3 µM): 3.55% | viability, T/C (second compound 1 µM, first compound 0.949 µM): 2.39% | viability, T/C (second compound 1 µM, first compound 3 µM): 1.24%

Cn1ncc(Cl)c1-c1cc(C(=O)NC(CN)Cc2cccc(F)c2)sc1Cl (stereo not given) + CC(Nc1ccc2c(c1)OCCn1cc(N3C(=O)OCC3C(F)F)nc1-2)C(N)=O
IC50 [1]: > 10000 nM | IC50 [2]: 766 nM | IC50 [3]: > 10000 nM | IC50 [4]: 270 nM | IC50 [5]: 209 nM | IC50 [6]: 162 nM | viability, T/C [7]: 97% | viability, T/C [8]: 87.4% | viability, T/C [9]: 50.5% | viability, T/C [10]: 30.1% | viability, T/C [11]: 20.2% | viability, T/C [12]: 102% | viability, T/C [13]: 88.8% | viability, T/C [14]: 91% | viability, T/C [15]: 56.1% | viability, T/C [16]: 32.6% | viability, T/C [17]: 17.5% | viability, T/C [18]: 94.3% | viability, T/C [19]: 98% | viability, T/C [20]: 80.4% | viability, T/C [21]: 55.1% | viability, T/C [22]: 30.8% | viability, T/C [23]: 19.4% | viability, T/C [24]: 99.7% | viability, T/C [25]: 85.3% | viability, T/C [26]: 72.9% | viability, T/C [27]: 47.4% | viability, T/C [28]: 27.5% | viability, T/C [29]: 14.8% | viability, T/C [30]: 89% | viability, T/C [31]: 79.9% | viability, T/C [32]: 61.5% | viability, T/C [33]: 47.5% | viability, T/C [34]: 24% | viability, T/C [35]: 15.7% | viability, T/C [36]: 72.2% | viability, T/C [37]: 56.2% | viability, T/C [38]: 62.1% | viability, T/C [39]: 37.3% | viability, T/C [40]: 22.6% | viability, T/C [41]: 13.2% | viability, T/C [42]: 67%
